Reference: publication PMC7913927, “Leishmanicidal Activity of Betulin Derivatives in Leishmania amazonensis; Effect on Plasma and Mitochondrial Membrane Potential, and Macrophage Nitric Oxide and Superoxide Production” (Microorganisms, 2021)
Several values for one entry are separate records, joined by “and”; a condition that tells them apart may be missing. Equal entries are not always repeated. Where two headings read alike, the source gives them in different places.

System: LTB0016 intracellular amastigotes in J774.1 macrophages
Assay: Macrophage-amastigote model, reference strain
Format: cell-based, Leishmania amazonensis
Details: for Growth (%) Exp1 Infección / Growth (%) Exp1 A/MØ / Growth (%) Exp1 A/100MØ / Growth (%) Exp1 %Control / Growth (%) Exp2 Infección / Growth (%) Exp2 A/MØ / Growth (%) Exp2 A/100MØ / Growth (%) Exp2 %Control / Growth (%) Exp3 Infección / Growth (%) Exp3 A/MØ / Growth (%) Exp3 A/100MØ / Growth (%) Exp3 %Control / Average A/100MØ: 72 h; for Growth (%) Exp1 Infección / Growth (%) Exp2 Infección / Growth (%) Exp3 Infección: % infected macrophages; for Growth (%) Exp1 A/MØ / Growth (%) Exp2 A/MØ / Growth (%) Exp3 A/MØ: amastigotes per infected macrophage; for Growth (%) Exp1 A/100MØ / Growth (%) Exp2 A/100MØ / Growth (%) Exp3 A/100MØ: infection index; for Growth (%) Exp1 %Control / Growth (%) Exp2 %Control / Growth (%) Exp3 %Control: infection index vs DMSO; for Average A/100MØ: average of Exp1-3
Method: We used a previously described methodology, with some modifications. Macrophage monolayers, grown in RMPIc medium, for 3 days, were detached from the bottom of the culture chamber, by physical treatment (low temperature and light strokes). Obtained macrophages were seeded in flat-bottom 96-well culture plates, at a density of 2 × 10^5 cells mL^−1 (40,000 macrophages/well), in a final volume of 200 µL. Plates were incubated for 2 h, and the supernatant was discarded to remove non-adhered macrophages. Medium was replaced with stationary-phase promastigotes suspended in 200 µL of RPMIc (2 × 10^6 parasites mL^−1, 400,000 parasites/well), at a macrophage: parasite ratio 1:10 [40]. The plates were incubated for 4 h. Afterwards the medium was replaced with fresh RPMIc and increasing concentrations of compounds or drugs tested were applied, in volumes of 2 µL, according to the different treatment groups. Plates were kept for 72 h, at 37 °C and 5% CO2. The medium was discarded and the wells were washed twice with PBS. Next, a Giemsa staining was performed in situ. It consisted of adding 200 µL of methanol/well, incubating for 5 min, discarding the fixative, and letting it dry at room temperature. Later, the Giemsa solution (10% in PBS w/v, 200 µL/well) was added, incubated for 10 min, and washed with PBS, allowing it to dry. Finally, the bottom of the plates was detached by percussion and the circular bottoms (wells) were fixed to slides with Permount synthetic resin, for later evaluation (Alcazar W., manuscript in preparation). Cell counting was performed with a 100× immersion objective. A minimum of 200 random macrophages were examined. The percentage of infected macrophages (% infection) and the average number of amastigotes present in infected macrophages (amastigotes) were determined. […] The infection rate represents the number of intracellular amastigotes per 100 macrophages evaluated. Additionally, the GI50 for the decrease in the infection rate was calculated. At least three independent experiments were performed. The effect of amphotericin-B (AmB) [Sigma-Aldrich, (St. Louis, MO, USA)] was included as positive control of the assay.

For `C=C(C)C1CCC2(C=NO)CCC3(C)C(CCC4C5(C)CCC(=NO)C(C)(C)C5CCC43C)C12` (centres unmarked) [Compound 18], the “SI (CC50/GI50) LTB0016” value (J774.1 CC50 / intracellular amastigote GI50, Table 2) was 240.45, the “Growth (%) Exp1 Infección” value (LTB0016, 0.10 µM) was 52.43% and the “Growth (%) Exp1 A/MØ” value (LTB0016, 0.10 µM) was 3.54. For the same compound, the “Growth (%) Exp1 A/100MØ” value (LTB0016, 0.10 µM) was 185.69, the “Growth (%) Exp1 %Control” value (LTB0016, 0.10 µM) was 70.78% and the “Growth (%) Exp2 Infección” value (LTB0016, 0.10 µM) was 57.50%. For the same compound, the “Growth (%) Exp2 A/MØ” value (LTB0016, 0.10 µM) was 3.36, the “Growth (%) Exp2 A/100MØ” value (LTB0016, 0.10 µM) was 193.20 and the “Growth (%) Exp2 %Control” value (LTB0016, 0.10 µM) was 90.86%. For the same compound, the “Growth (%) Exp3 Infección” value (LTB0016, 0.10 µM) was 41.73%, the “Growth (%) Exp3 A/MØ” value (LTB0016, 0.10 µM) was 2.66 and the “Growth (%) Exp3 A/100MØ” value (LTB0016, 0.10 µM) was 111.00. For the same compound, the “Growth (%) Exp3 %Control” value (LTB0016, 0.10 µM) was 62.52%, the “Average A/100MØ” value (LTB0016, 0.10 µM) was 163.30 and the “Growth (%) Exp1 Infección” value (LTB0016, 0.50 µM) was 36.24%. The “Growth (%) Exp1 A/MØ” value (LTB0016, 0.50 µM) was 3.35, the “Growth (%) Exp1 A/100MØ” value (LTB0016, 0.50 µM) was 121.51 and the “Growth (%) Exp1 %Control” value (LTB0016, 0.50 µM) was 46.32%. The “Growth (%) Exp2 Infección” value (LTB0016, 0.50 µM) was 32.38%, the “Growth (%) Exp2 A/MØ” value (LTB0016, 0.50 µM) was 2.08 and the “Growth (%) Exp2 A/100MØ” value (LTB0016, 0.50 µM) was 67.35. The “Growth (%) Exp2 %Control” value (LTB0016, 0.50 µM) was 31.68%, the “Growth (%) Exp3 Infección” value (LTB0016, 0.50 µM) was 25.00% and the “Growth (%) Exp3 A/MØ” value (LTB0016, 0.50 µM) was 2.29. The “Growth (%) Exp3 A/100MØ” value (LTB0016, 0.50 µM) was 57.25, the “Growth (%) Exp3 %Control” value (LTB0016, 0.50 µM) was 32.25% and the “Average A/100MØ” value (LTB0016, 0.50 µM) was 82.04. For the same compound, the “Growth (%) Exp1 Infección” value (LTB0016, 1.00 µM) was 10.68%, the “Growth (%) Exp1 A/MØ” value (LTB0016, 1.00 µM) was 3.15 and the “Growth (%) Exp1 A/100MØ” value (LTB0016, 1.00 µM) was 33.68. The “Growth (%) Exp1 %Control” value (LTB0016, 1.00 µM) was 12.84%, the “Growth (%) Exp2 Infección” value (LTB0016, 1.00 µM) was 24.45% and the “Growth (%) Exp2 A/MØ” value (LTB0016, 1.00 µM) was 1.29. For the same compound, the “Growth (%) Exp2 A/100MØ” value (LTB0016, 1.00 µM) was 31.54, the “Growth (%) Exp2 %Control” value (LTB0016, 1.00 µM) was 14.83% and the “Growth (%) Exp3 Infección” value (LTB0016, 1.00 µM) was 17.20%. The “Growth (%) Exp3 A/MØ” value (LTB0016, 1.00 µM) was 3.00, the “Growth (%) Exp3 A/100MØ” value (LTB0016, 1.00 µM) was 51.60 and the “Growth (%) Exp3 %Control” value (LTB0016, 1.00 µM) was 29.06%. For the same compound, the “Average A/100MØ” value (LTB0016, 1.00 µM) was 38.94, the “Growth (%) Exp1 Infección” value (LTB0016, 5.00 µM) was 9.37% and the “Growth (%) Exp1 A/MØ” value (LTB0016, 5.00 µM) was 1.83. For the same compound, the “Growth (%) Exp1 A/100MØ” value (LTB0016, 5.00 µM) was 17.18, the “Growth (%) Exp1 %Control” value (LTB0016, 5.00 µM) was 6.55% and the “Growth (%) Exp2 Infección” value (LTB0016, 5.00 µM) was 17.07%. For the same compound, the “Growth (%) Exp2 A/MØ” value (LTB0016, 5.00 µM) was 1.50, the “Growth (%) Exp2 A/100MØ” value (LTB0016, 5.00 µM) was 25.61 and the “Growth (%) Exp2 %Control” value (LTB0016, 5.00 µM) was 12.04%. The “Growth (%) Exp3 Infección” value (LTB0016, 5.00 µM) was 10.71%, the “Growth (%) Exp3 A/MØ” value (LTB0016, 5.00 µM) was 2.75 and the “Growth (%) Exp3 A/100MØ” value (LTB0016, 5.00 µM) was 29.45. The “Growth (%) Exp3 %Control” value (LTB0016, 5.00 µM) was 16.59%, the “Average A/100MØ” value (LTB0016, 5.00 µM) was 24.08 and the “Growth (%) Exp1 Infección” value (LTB0016, 10.00 µM) was 5.40%. The “Growth (%) Exp1 A/MØ” value (LTB0016, 10.00 µM) was 1.67, the “Growth (%) Exp1 A/100MØ” value (LTB0016, 10.00 µM) was 9.00 and the “Growth (%) Exp1 %Control” value (LTB0016, 10.00 µM) was 3.43%. For the same compound, the “Growth (%) Exp2 Infección” value (LTB0016, 10.00 µM) was 11.23%, the “Growth (%) Exp2 A/MØ” value (LTB0016, 10.00 µM) was 1.20 and the “Growth (%) Exp2 A/100MØ” value (LTB0016, 10.00 µM) was 13.48. For the same compound, the “Growth (%) Exp2 %Control” value (LTB0016, 10.00 µM) was 6.34%, the “Growth (%) Exp3 Infección” value (LTB0016, 10.00 µM) was 3.48% and the “Growth (%) Exp3 A/MØ” value (LTB0016, 10.00 µM) was 3.00. The “Growth (%) Exp3 A/100MØ” value (LTB0016, 10.00 µM) was 10.44, the “Growth (%) Exp3 %Control” value (LTB0016, 10.00 µM) was 5.88% and the “Average A/100MØ” value (LTB0016, 10.00 µM) was 10.97. The GI50 (LTB0016 intracellular amastigotes, GraphPad regression, read-out: GI50 (µM) Experiment 1 Regresion) was 0.29 µM, the GI50 (LTB0016 intracellular amastigotes, GraphPad regression, read-out: GI50 (µM) Experiment 2 Regresion) was 0.34 µM and the GI50 (LTB0016 intracellular amastigotes, GraphPad regression, read-out: GI50 (µM) Experiment 3 Regresion) was 0.2 µM. For the same compound, the GI50 (intracellular amastigotes, Supplementary Materials II, read-out: GI50 (µM) LTB0016, mean of three experiments) was 0.278 µM and 0.28 µM and the GI50 (summary bound for reference strain LTB0016 and patient isolates, read-out: GI50) was less than 1 µM.
